# Test results taken from article PMC11808397, “Development of selective nanomolar cyclic peptide ligands as GBA1 enzyme stabilisers” (RSC Chemical Biology, 2025).
# Positions of bridges follow the written chain, without caps; N, C: chain ends. Non-standard residues stand in square brackets, D forms with d. Residues, ends and D or L forms follow the SMILES beside them.
# How the values were obtained:
# [1] = biological target: T1, recombinant human GBA1 (rhGBA1, Cerezyme) (Homo sapiens, UniProt P04062, R534H); assay: In vitro rhGBA1 inhibition, 4-MU-β-D-glucopyranoside hydrolysis; format: biochemical; conditions: Cerezyme 14 nM, 3.7 mM 4-MU-β-D-glucopyranoside, McIlvaine pH 5.2, 30 min pre-incubation 37 °C + 30 min, mean ± SD from 3 technical triplicates; for IC50: SD
# T1 construct: purchased Cerezyme
# T1 sequence (P04062 40-536 R534H): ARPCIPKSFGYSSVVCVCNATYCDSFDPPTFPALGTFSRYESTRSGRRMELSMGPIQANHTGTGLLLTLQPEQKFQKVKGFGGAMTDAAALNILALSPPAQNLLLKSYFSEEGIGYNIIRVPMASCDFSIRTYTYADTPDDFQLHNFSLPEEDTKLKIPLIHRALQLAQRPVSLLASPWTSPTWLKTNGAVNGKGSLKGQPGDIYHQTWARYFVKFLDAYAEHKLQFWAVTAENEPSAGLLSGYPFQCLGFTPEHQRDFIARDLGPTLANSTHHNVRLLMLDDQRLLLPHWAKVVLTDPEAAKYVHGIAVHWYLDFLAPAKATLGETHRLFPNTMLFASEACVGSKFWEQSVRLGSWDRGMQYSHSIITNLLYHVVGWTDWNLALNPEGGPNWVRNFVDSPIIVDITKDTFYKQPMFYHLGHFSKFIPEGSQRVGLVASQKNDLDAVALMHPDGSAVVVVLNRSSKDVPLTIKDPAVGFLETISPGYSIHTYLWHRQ
# Protocol: (§1) Based on the pull-down validation, a set of eight cyclic peptides (L1, L2, L4, L6, D1, D8, D12 and D13) were identified, synthesized, and evaluated for their inhibitory potency against recombinant human GBA1 (rhGBA1, Cerezyme®) and their selectivity over human β-glucosidases GBA2 and GBA3. Half-maximum inhibitory concentration (IC50) values for β-glucosidases were determined in vitro by measuring hydrolysis of 4-methylumbelliferyl-β-D-glucopyranoside (4-MU-β-D-Glu) fluorogenic substrate. […]
# Pure product fractions were pooled, lyophilized, and dissolved again in DMSO before concentration was determined by A280 using a sample diluted in phosphate buffer at pH 7.4 and extinction coefficients determined from the sequence using the Expasy ProtParam online tool (https://web.expasy.org/protparam/). […]
# 2.5. In vitro IC50 and Ki measurements
# For GBA1, IC50 values were determined using the recombinant human GBA1 (rhGBA1, Cerezyme) following described procedures.4 Enzyme activity was measured using 3.7 mM 4-methylumbeliferone (4MU)-β-D-glucopyranoside in 150 mM McIlvaine buffer pH 5.2 supplemented with 0.1% bovine serum albumin (BSA) (w/v), 0.1% Triton X-100 (v/v), and 0.2% sodium taurocholate (w/v). Varying concentrations of inhibitor (12.5 µL) were incubated with 12.5 µL of enzyme (final concentration 14 nM) at 37 °C for 30 min. Following this, 100 µL of 4MU substrate was added and the samples were again incubated at 37 °C for 30 min. The reaction was quenched using excess 1 M NaOH-glycine (200 µL, pH 10.3) and 4MU fluorescence was measured using a LS55 fluorimeter (λEx 366 nm and λEm 445 […]
# 30 min at 37 °C (12.5 µL) and subsequently incubated with the tested ligands at a range of concentrations for 30 min at 37 °C (12.5 µL), after which 100 µL 4MU-β-D-glucopyranoside was added for a final incubation of 30 min at 37 °C, quenched with 200 µL 1 M NaOH-glycine (pH 10.3) and fluorescence was measured. IC50 values were calculated using GraphPad Prism version 8.
# GBA2 = biological target: T2, GBA2 (Homo sapiens, UniProt Q9HCG7); assay: GBA2 inhibition in overexpressing HEK293T lysates; format: biochemical; conditions: McIlvaine pH 5.8, 4-MU substrate
# T2 construct: expressed in transfected cells
# T2 sequence (Q9HCG7 1-927): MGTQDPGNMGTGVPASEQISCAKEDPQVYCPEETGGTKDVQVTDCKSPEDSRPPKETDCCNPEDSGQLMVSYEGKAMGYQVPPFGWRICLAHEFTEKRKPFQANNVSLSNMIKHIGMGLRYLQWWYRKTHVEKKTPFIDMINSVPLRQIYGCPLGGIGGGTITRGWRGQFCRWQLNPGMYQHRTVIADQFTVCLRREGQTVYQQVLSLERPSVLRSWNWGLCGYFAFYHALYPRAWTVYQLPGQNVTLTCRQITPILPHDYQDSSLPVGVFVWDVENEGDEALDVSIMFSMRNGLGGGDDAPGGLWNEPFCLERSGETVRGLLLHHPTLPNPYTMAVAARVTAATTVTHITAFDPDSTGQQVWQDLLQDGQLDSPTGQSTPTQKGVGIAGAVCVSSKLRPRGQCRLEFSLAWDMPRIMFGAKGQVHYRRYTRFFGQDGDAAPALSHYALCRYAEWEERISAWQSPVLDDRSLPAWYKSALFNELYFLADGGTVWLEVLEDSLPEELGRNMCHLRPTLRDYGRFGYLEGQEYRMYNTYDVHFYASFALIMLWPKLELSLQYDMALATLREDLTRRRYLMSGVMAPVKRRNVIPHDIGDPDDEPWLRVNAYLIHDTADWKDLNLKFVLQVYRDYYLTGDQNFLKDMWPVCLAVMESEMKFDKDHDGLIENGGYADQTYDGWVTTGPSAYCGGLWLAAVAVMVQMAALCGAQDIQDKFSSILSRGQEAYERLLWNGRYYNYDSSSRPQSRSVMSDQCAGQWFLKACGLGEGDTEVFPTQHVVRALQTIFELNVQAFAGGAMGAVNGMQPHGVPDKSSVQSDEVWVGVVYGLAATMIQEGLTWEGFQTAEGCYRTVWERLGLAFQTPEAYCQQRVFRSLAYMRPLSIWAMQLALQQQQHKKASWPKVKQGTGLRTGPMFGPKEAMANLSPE
# Protocol: as §1
# 2.5. In vitro IC50 and Ki measurements […]
# nM) at 37 °C for 30 min. Following this, 100 µL of 4MU substrate was added and the samples were again incubated at 37 °C for 30 min. The reaction was quenched using excess 1 M NaOH-glycine (200 µL, pH 10.3) and 4MU fluorescence was measured using a LS55 fluorimeter (λEx 366 nm and λEm 445 […]
# GBA2 and GBA3 IC50 values were determined following a similar protocol,5 using stable GBA2 or GBA3 HEK293T over-expression cell lysates and McIlvaine buffer pH 5.8 with 0.1 % BSA (w/v) and 100 mM HEPES with 0.1 % BSA, respectively. Covalent inhibitor of endogenous GBA1 (1 µM Bodipy green-cyclophellitol β-epoxide activity based probe) was added for both GBA2 and GBA3 assays, and GBA2 inhibitor N-(5-adamantane-1-yl-methoxy-pentyl)-deoxynojirimycin, AMP-DNM at 1 nM) was added for GBA3 assay. Cell lysates were pre-incubated with the aforementioned GBA1/GBA2 inhibitors for 30 min at 37 °C (12.5 µL) and subsequently incubated with the tested ligands at a range of concentrations for 30 min at 37 °C (12.5 µL), after which 100 µL 4MU-β-D-glucopyranoside was added for a final incubation of 30 min at 37 °C, quenched with 200 µL 1 M NaOH-glycine (pH 10.3) and fluorescence was measured. IC50 values were calculated using GraphPad Prism version 8.
Compound,rhGBA1 IC50 [1],IC50 [1] [µM],IC50 (GBA2) [µM]
CC[C@H](C)[C@H](NC(=O)[C@H](CC(C)C)NC(=O)[C@H](Cc1ccc(O)cc1)NC(=O)[C@H](Cc1ccc(O)cc1)NC(=O)[C@@H]1CSCC(=O)N[C@H](Cc2ccc(O)cc2)C(=O)N[C@@H](CCCNC(=N)N)C(=O)N[C@@H](C(C)C)C(=O)N1)C(=O)N[C@H](C(=O)N[C@H](C(=O)N[C@@H](CC(C)C)C(=O)N[C@@H](CC(=O)O)C(=O)N[C@@H](CS)C(N)=O)C(C)C)[C@@H](C)O [D1] ({CH2CO}-[dY]RVCYYLITVLDC-NH2; thioether N-4),low nanomolar,0.005 ± 0.003,> 100
CC(C)C[C@@H]1NC(=O)CNC(=O)[C@H](Cc2ccccc2)NC(=O)[C@H](CC(C)C)NC(=O)[C@@H]2CCCN2C(=O)[C@H](Cc2ccc(O)cc2)NC(=O)CSC[C@@H](C(=O)N2CCC[C@H]2C(=O)N[C@@H](CC(N)=O)C(=O)N[C@@H](Cc2c[nH]c3ccccc23)C(=O)N[C@@H](Cc2ccccc2)C(=O)N2CCC[C@H]2C(=O)N[C@@H](Cc2ccc(O)cc2)C(=O)N[C@@H](CCC(N)=O)C(=O)N[C@@H](CS)C(N)=O)NC(=O)[C@H](CO)NC(=O)[C@H](Cc2ccccc2)NC1=O [L4] ({CH2CO}-YPLFGLFSCPNWFPYQC-NH2; thioether N-9),low nanomolar,0.009 ± 0.004,> 100
CC(C)C[C@H](NC(=O)[C@@H](NC(=O)[C@H](CCCNC(=N)N)NC(=O)[C@@H]1CSCC(=O)N[C@H](Cc2ccc(O)cc2)C(=O)N[C@@H]([C@@H](C)O)C(=O)N2CCC[C@H]2C(=O)NCC(=O)N[C@@H](Cc2ccc(O)cc2)C(=O)N[C@@H](C(C)C)C(=O)N[C@@H](Cc2ccc(O)cc2)C(=O)N1)C(C)C)C(=O)N[C@@H](CCCCN)C(=O)N[C@@H](Cc1ccc(O)cc1)C(=O)N[C@@H](CS)C(N)=O [D8] ({CH2CO}-[dY]TPGYVYCRVLKYC-NH2; thioether N-8),–,0.012 ± 0.011,> 100
CC[C@H](C)[C@H](NC(=O)[C@H](CCCNC(=N)N)NC(=O)[C@@H]1CSCC(=O)N[C@@H](Cc2ccc(O)cc2)C(=O)N[C@@H](C)C(=O)N[C@@H](Cc2ccc(O)cc2)C(=O)N[C@@H](Cc2c[nH]c3ccccc23)C(=O)N[C@@H](Cc2c[nH]c3ccccc23)C(=O)N[C@@H](CC(C)C)C(=O)N1)C(=O)N1CCC[C@H]1C(=O)N[C@@H](Cc1c[nH]c2ccccc12)C(=O)N[C@@H](CC(C)C)C(=O)N[C@@H](CO)C(=O)N[C@H](C(N)=O)C(C)C [L2] ({CH2CO}-YAYWWLCRIPWLSV-NH2; thioether N-7),–,0.34 ± 0.16,> 100
CC[C@H](C)[C@@H]1NC(=O)[C@H](CO)NC(=O)[C@H](CS)NC(=O)CNC(=O)CNC(=O)[C@H](CC(C)C)NC(=O)[C@H](Cc2ccc(O)cc2)NC(=O)[C@H](C(C)C)NC(=O)[C@H](CC(C)C)NC(=O)[C@H](CCCNC(=N)N)NC(=O)[C@@H]2CCCN2C(=O)[C@H](Cc2ccc(O)cc2)NC(=O)CSC[C@@H](C(N)=O)NC(=O)[C@H](CCC(=O)O)NC(=O)[C@H](CC(C)C)NC(=O)[C@H](CC(C)C)NC1=O [L1] ({CH2CO}-YPRLVYLGGCSILLEC-NH2; thioether N-16),high micromolar range,138 ± 55.8,> 100

# Further molecules by falling IC50 [1], results first:
rhGBA1 IC50 [1],IC50 [1] [µM],IC50 (GBA2) [µM],Compound
–,5.66 ± 2.04,> 100,CC[C@H](C)[C@@H]1NC(=O)[C@H](Cc2ccc(O)cc2)NC(=O)CSC[C@@H](C(N)=O)NC(=O)[C@H](Cc2c[nH]c3ccccc23)NC(=O)[C@H](CCC(N)=O)NC(=O)[C@H]([C@@H](C)CC)NC(=O)[C@H]([C@@H](C)CC)NC(=O)[C@@H]2CCCN2C(=O)[C@H](C(C)C)NC(=O)[C@H](Cc2ccc(O)cc2)NC(=O)[C@H](Cc2c[nH]c3ccccc23)NC(=O)[C@H](CO)NC1=O [L6] ({CH2CO}-YISWYVPIIQWC-NH2; thioether N-12)
low nanomolar,0.004 ± 0.004,> 100,CC(C)C[C@@H]1NC(=O)CNC(=O)[C@H](CC(C)C)NC(=O)[C@@H](Cc2ccc(O)cc2)NC(=O)CSC[C@@H](C(N)=O)NC(=O)[C@H](CO)NC(=O)[C@H](CCCCN)NC(=O)[C@H](CC(C)C)NC(=O)[C@H](Cc2ccccc2)NC(=O)[C@H](CCCNC(=N)N)NC(=O)[C@H](Cc2ccc(O)cc2)NC(=O)[C@H](Cc2c[nH]c3ccccc23)NC1=O [D12] ({CH2CO}-[dY]LGLWYRFLKSC-NH2; thioether N-12)
